Key:
CT26 tumor = assay: Tumor growth inhibition test in CT26 tumor-bearing mice; type: in vivo; details: αPD-1 5 mg/kg i.p. every 3 days x3
Description: CT26 cells (2×10^6) were suspended in cold PBS and subcutaneously injected to establish CT26 tumor-bearing mice.
The tumor volume was measured using calipers and calculated for each mouse using the following equation: V=½ab^2 (a is the longest axis and b is the shortest axis). After the treatment schedule, the tumors were excised and weighed.
The tumor volume was measured every day by measuring long-axis and short-axis of the tumor using calipers.

exosomal PD-L1 = assay: Exosomal PD-L1 in plasma of CT26 tumor-bearing mice (ELISA); type: in vivo; details: SFX 200 mg/kg, αPD-1 5 mg/kg, FIG. 4C
Description: To assess PD-L1 on EXOs isolated from mouse plasma, ELISA plates were coated with a monoclonal antibody against PD-L1 (R&D Systems, Minneapolis, MN, USA) overnight at 25° C. Free binding sites were blocked with blocking buffer for 2 h at 25° C. After washing the plates with 0.05% Tween-20 in PBS, EXOs were added to each well and incubated for 2 h at 25° C. […] The plate was incubated for 20 min with a substrate solution composed of H2O2 and tetramethylbenzidine. After the addition of a stop solution containing 2N H2SO4 (R&D Systems, DY994), the plate was immediately read at 450 nm using an xMark™ microplate reader (Bio-Rad).

CT26 cells = assay: Ability of PDC to inhibit exosome secretion in CT26 cells (NTA); type: cell-based, murine; design: dose or concentration left out as unconfirmed; details: FIG. 14
Description: To evaluate the ability of PEG-b-Poly(L-lysine-CDM-SFX) to inhibit the secretion of exosomes, CT26 cells, a murine colon cancer cell line, were treated with 100 µM of SFX and the same amount of PDC, exosomes from the supernatant were separated, and secreted exosomes were quantitatively analyzed.
In addition, to evaluate the ability of PEG-SS-AMB to inhibit the secretion of exosomes, CT26 cells, a murine colon cancer cell line, were treated with […] of PEG-SS-AMB, exosomes from the supernatant were separated, and secreted exosomes were quantitatively analyzed.

COc1ccccc1Oc1c(NS(=O)(=O)c2ccc(C(C)(C)C)cc2)nc(-c2ncccn2)nc1OCCO [BST, bosentan]
tumor growth (tumor volume) (CT26 tumor; BST 10 mg/kg orally daily, FIG. 16B): effectively retarded

CCCNS(=O)(=O)Nc1ncnc(OCCOc2ncc(Br)cn2)c1-c1ccc(Br)cc1 [MCT, macitentan]
tumor growth (tumor volume) (CT26 tumor; MCT 50 mg/kg orally daily, FIG. 17B): effectively retarded

Cc1noc(NS(=O)(=O)c2ccc(N)cc2)c1C [SFX, sulfisoxazole]
exosomal PD-L1 levels in the plasma (exosomal PD-L1): significantly decreased | inhibition of exosome secretion compared to the untreated control group (CT26 cells): more than 50%
